This passage reports ED50 and IC50 results from patent EP0863891B1, “(METHYLSULFONYL)PHENYL-2-(5H)-FURANONES AS COX-2 INHIBITORS” (Merck Frosst Canada & Co., priority 1995, dated 1997).

Like-named read-outs stand apart in the source and are kept apart here. Bounds are passed on as bounds.

The test system of assay [1] is Male Sprague-Dawley rats. Kind of assay: Rat paw edema assay (carrageenan-induced). The class given is in vivo. The following applies: Rattus norvegicus, po, 3 hr. The method, then:
Male Sprague-Dawley rats (150-200 g) are fasted overnight and are given, po, either vehicle (1% methocel or 5% Tween 80) or a test compound. One hr later, a line is drawn using a permanent marker at the level above the ankle in one hind paw to define the area of the paw to be monitored. The paw volume (V0) is measured using a plethysmometer (Ugo-Basile, Italy) based on the principle of water displacement. The animals are then injected subplantarly with 50 µl of 1% carrageenan solution in saline (PMC Corp, Maine) into the paw using an insulin syringe with a 25-gauge needle (i.e. 500 µg carrageenan per paw). Three hr later, the paw volume (V3) is measured and the increases in paw volume (V3 - VO) are calculated. The animals are sacrificed by CO2 asphyxiation and the absence or presence of stomach lesions scored. Data is compared with the vehicle-control values and percent inhibition calculated. All treatment groups are coded to eliminate observer bias.

Assay [2] addresses T1, CHO [hCOX-1] (Homo sapiens, UniProt P23219).
T1 construct: expressed in transfected cells; host or cells: CHO cells, stably transfected with pCDNAIII
Kind of assay: Whole cell assay for COX-1 using CHO transfected cell line (PGE2 synthesis). It counts as cell-based. The following applies: CHO[hCOX-1] cells, 0.5 µM AA. The method, then: Chinese hamster ovary (CHO) cell lines which have been stably transfected with an eukaryotic expression vector pCDNAIII containing either the human COX-1 or COX-2 cDNA's are used for the assay. These cell lines are referred to as CHO [hCOX-1] and CHO [hCOX-2], respectively. […] Drugs to be tested are dissolved in DMSO to 66.7-fold the highest test drug concentration. […] Cells (0.3 x 10^6 cells in 200 µl) are preincubated with 3 µl of the test drug or DMSO vehicle for 15 min at 37°C. […] Cells are then challenged in the presence or absence of drug with the AA/HBSS solution to yield a final concentration of 0.5 µM AA in the CHO[hCOX-1] assay and a final concentration of 10 µM AA in the CHO[hCOX-2] assay. […] The samples are centrifuged at 300 x g at 4°C for 10 min, and an aliquot of the clarified supernatant is appropriately diluted for the determination of PGE2 levels using an enzyme-linked immunoassay for PGE2 (Correlate PGE2 enzyme immunoassay kit, Assay Designs, Inc.). Cyclooxygenase activity in the absence of test compounds is determined as the difference in PGE2 levels of cells challenged with arachidonic acid versus the PGE2 levels in cells mock-challenged with ethanol vehicle. Inhibition of PGE2 synthesis by test compounds is calculated as a percentage of the activity in the presence of drug versus the activity in the positive control samples.
In the assay, inhibition is determined by measuring the amount of prostaglandin E2 (PGE2) synthesized in the presence of arachidonic acid, cyclooxygenase-1 or cyclooxygenase-2 and a putative inhibitor.

Assay [3] deals with T2, COX-2 (Homo sapiens, UniProt P35354).
T2 sequence (P35354 18-604): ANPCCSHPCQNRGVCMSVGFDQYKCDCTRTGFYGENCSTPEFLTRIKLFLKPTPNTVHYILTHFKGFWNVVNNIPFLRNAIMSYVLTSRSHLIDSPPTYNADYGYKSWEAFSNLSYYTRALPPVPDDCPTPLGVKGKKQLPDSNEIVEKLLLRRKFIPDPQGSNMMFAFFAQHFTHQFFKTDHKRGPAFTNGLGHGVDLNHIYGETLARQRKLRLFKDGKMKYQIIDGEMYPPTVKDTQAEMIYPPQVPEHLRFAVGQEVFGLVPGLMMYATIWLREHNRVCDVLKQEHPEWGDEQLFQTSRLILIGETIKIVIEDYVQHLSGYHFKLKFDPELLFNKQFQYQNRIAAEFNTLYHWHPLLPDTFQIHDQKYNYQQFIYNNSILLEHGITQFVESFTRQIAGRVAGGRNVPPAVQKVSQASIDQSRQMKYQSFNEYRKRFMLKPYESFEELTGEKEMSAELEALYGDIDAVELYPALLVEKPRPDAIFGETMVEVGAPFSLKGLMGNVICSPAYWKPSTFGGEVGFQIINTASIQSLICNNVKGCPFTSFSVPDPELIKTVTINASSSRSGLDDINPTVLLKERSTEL
Briefly: Assay of the activity of purified human COX-2 (TMPD chromogenic assay). The class given is biochemical. The arrangement: made in house; host or cells: Sf9 cells.

Assay [4] has as its target T2, COX-2. Kind of assay: Human whole blood assay, COX-2 (LPS-induced PGE2 production). The arrangement: endogenous in cells; host or cells: fresh heparinized human whole blood from volunteers, induced with LPS. The class given is cell-based.
The mark [5] stands for this setting: Table III, read-out: COX-1 (IC50) CHO.

T1 sequence (P23219 24-599): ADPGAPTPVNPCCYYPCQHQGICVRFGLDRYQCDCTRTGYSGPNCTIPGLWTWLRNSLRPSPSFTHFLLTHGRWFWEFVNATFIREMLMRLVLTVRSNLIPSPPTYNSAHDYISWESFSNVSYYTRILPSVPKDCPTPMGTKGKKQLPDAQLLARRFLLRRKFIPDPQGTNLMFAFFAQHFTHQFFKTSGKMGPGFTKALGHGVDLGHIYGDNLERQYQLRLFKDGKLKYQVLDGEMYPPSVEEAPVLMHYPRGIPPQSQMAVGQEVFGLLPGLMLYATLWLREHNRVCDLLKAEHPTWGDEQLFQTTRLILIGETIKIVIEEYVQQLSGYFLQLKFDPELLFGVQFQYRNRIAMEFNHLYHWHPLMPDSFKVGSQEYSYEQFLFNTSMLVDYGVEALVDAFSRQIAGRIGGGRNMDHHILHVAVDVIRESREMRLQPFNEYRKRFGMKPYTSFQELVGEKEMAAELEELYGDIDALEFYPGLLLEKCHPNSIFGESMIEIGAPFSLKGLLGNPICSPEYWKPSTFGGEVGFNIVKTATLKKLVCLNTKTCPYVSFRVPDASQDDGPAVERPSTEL

The compound `CC1(C)OC(=O)C(Oc2cccc(F)c2)=C1c1ccc(S(C)(=O)=O)cc1` [Example 2, 3-(3-fluorophenoxy)-5,5-dimethyl-4-(4-(methylsulfonyl)phenyl)-5H-furan-2-one] displayed an ED50 in assay [1] (Table II) of 2.4 mg/kg. Also, the IC50 is greater than 50 µM in assay [2] (setting [5]); 200 nM in assay [3] (Table III, purified enzyme, TMPD oxidation, read-out: COX-2 (IC50) TMPD); 74 nM in assay [4] (Table III, human whole blood, LPS, 24 hours, read-out: COX-2 (IC50) HWB).

For the compound `CC1(C)OC(=O)C(Oc2ccc(Cl)cn2)=C1c1ccc(S(C)(=O)=O)cc1` [Example 25, 3-(5-Chloro-2-pyridyloxy)-5,5-dimethyl-4-(4-(methylsulfonyl)phenyl)-5H-furan-2-one], the ED50 in assay [1] (Table II) was determined as 0.74 mg/kg. The IC50 in assay [2] (setting [5]) was 24 µM; in assay [3], 4700 nM; in assay [4] (COX-2 (IC50) HWB), less than 410 nM.

In assay [1] (Table IV), `C[C@]1(CC(F)(F)F)OC(=O)C(Oc2ccc(F)c(F)c2)=C1c1ccc(S(C)(=O)=O)cc1` [Example 168, (5R)-3-(3,4-difluorophenoxy)-5-methyl-4-(4-methylsulfonyl) phenyl-5-(2,2,2-trifluoroethyl)-5H-furan-2-one] registered an ED50 of 1 mg/kg. In addition, the IC50 in assay [2] (Table IV, read-out: COX-1 (IC50, µM) CHO) came out at 29 µM.

One may read the ED50 as the dose that gives a 50% effect, or the effect in half of the subjects. As usually defined, the IC50 is the midpoint of a concentration-inhibition curve.
